# Legend:
# [1] = test system: extracellular Aβ (Aβ1-38, Aβ1-40, Aβ1-42); assay: Extracellular Aβ production in organotypic hippocampal slice cultures (MSD sandwich immunoassay); type: cell-based, mice
# Experimental: Organotypic hippocampal slice cultures (OHSC) were prepared from newborn (P0-P3) C57B16 or for transgenic 3×Tg-AD mice and were cultured according the interface method (Gogolla et al., 2006). OHSC were kept for 7 days in vitro (div) at 37° C. in a humidified atmosphere (5% CO2) before treatment. Medium was changed every other day.
# For acute exposure, neurons were exposed to various concentration of Aftin-5 for 18 hours for acute exposure. […]
# All Aβ peptides assays in the samples were performed using V-PLEX Aβ Peptide Panel 1 (4G8) Kit (MSD Technologies_K15199E-1). All plates were read on the SECTOR Imager 2 400 (MSD Technologies). The Aβ peptides assay is based on the principle of the sandwich immunoassay. All assays have followed strictly the protocol kit and all reagents were from Meso Scale Discovery. Briefly, a 96-well plate having 4 spots pre-coated with the corresponding antibodies is provided by MSD Technology (4-spot MULTI-SPOT plates). Before adding the samples, a first saturation step is required. Once the plate is satured and washed, 25 μL of sample (or calibrators) per well are loaded, then 25 μL of the Detection Antibody solution (MSD SULFO-TAG). The plate is incubated for 2 hours. At the end of the incubation, the plate is washed and then a chemical solution (Read buffer 2×) is added allowing electrochemiluminescence. After a short incubation (5 min) at room temperature, the plate is read on the SECTOR Imager 2400. The instrument measures the intensity of the light electrochemiluminescence.
# [2] = test system: Thr231 phosphorylated Tau; assay: Tau phosphorylation (Thr231) in neuronal primary cultures (MSD); type: cell-based, mice; conditions: neurons, 50 μM, 100 μM and 150 μM for 18 h
# Experimental: FIG. 7. Plots illustrating the effect of Aftin-5 mediated attenuation of Tau phosphorylation in neuronal primary cultures. Culture media of cortical neurons were replaced by incubation medium containing Aftin-5 at 100 μM (A100) or 150 μM (A150) or vehicle (0.1% DMSO; Control). After 18 h incubation pTau (Thr231) and total Tau were quantified by sandwich immunoassay using the Meso Scale Discovery technology. Different Tau concentrations were expressed versus total proteins concentration. Kruskal-Wallis test and Dunn's Multiple Comparison post-hoc tests were performed and ***p<0.001 indicates significant differences between Aftin-5 and control conditions. Data expressed as means+/−SEM (n=6 wells/condition).
# Hippocampi and cortex were dissected in HBSS containing 5 mM glucose (dissection medium). […] Cells were counted and seeded at a density of 22,000 per cm^2 for hippocampal neurons and 10^5 per cm^2 for cortical neurons into 24 wells culture plates (Costar) in plating medium (DMEM medium containing 10% heat-inactivated horse serum (Life Technologies)). […]
# Tau and P-Tau in primary rat neurons, organotypic hippocampal slice cultures from wild type (WT) and transgenic Tau mice (3 Tg) after by Aftin-5. Tau was quantified by sandwich immunoassay using the Meso Scale Discovery technologies. […] After a short incubation (5 min) at room temperature, the plate is read on the SECTOR Imager 2400. […]
# [3] = chronic treatment of OHSC (10 days)
smiles,measurement,setting,value
CC[C@H](CO)Nc1nc(N(C)c2ccccc2)c2ncn(C(C)C)c2n1 [Aftin-5],modulation of Aβ1-42/Aβ1-40 ratio induced by Aftin-5 in presence of γ-secretase inhibitor BMS,"[1]; OHSC, Aftin-5 50 μM with BMS (10 μM), 10 days",no changes
same,Aβ1-38,[1]; [3],decrease
same,Aβ1-40,[1]; [3],remained unchanged
same,concentration ratio Aβ1-42/Aβ1-40,[1]; [3],slight but significant increase
same,production of Aβ1-42,"[1]; chronic treatment of OHSC (10 days), P<0.0001",increase
same,Thr231 phosphorylated Tau protein,[2],significant dose dependent decrease
